Assay results published in ChEMBL document CHEMBL3046027, “In vitro and in vivo antifungal activity of synthetic pure isothiocyanates against Sclerotinia sclerotiorum” (Pest Manag Sci, 2011).

Key:
Sclerotinia sclerotiorum [1] = experiment: In vivo antifungal Sclerotinia sclerotiorum in Pepper (Capsicum annuum L. cv. Sera Demre) assessed as inhibition of mycelial growth in volatile phase at 158 umol/L measured after 10 to 14 weeks; assay type: functional
Sclerotinia sclerotiorum [2] = experiment: In vivo antifungal Sclerotinia sclerotiorum in Pepper (Capsicum annuum L. cv. Sera Demre) assessed as inhibition of mycelial growth in volatile phase at 79 umol/L measured after 10 to 14 weeks; assay type: functional
Sclerotinia sclerotiorum [3] = experiment: Antifungal activity against Sclerotinia sclerotiorum assessed as inhibition of mycelial growth in contact phase at 2358 umol/l measured at 20 degC after 5 days; assay type: functional; conditions: 120 h, read-out: GI
Sclerotinia sclerotiorum [4] = experiment: Antifungal activity against Sclerotinia sclerotiorum assessed as inhibition of mycelial growth in contact phase at 1572 umol/l measured at 20 degC after 5 days; assay type: functional; conditions: 120 h, read-out: GI
Sclerotinia sclerotiorum [5] = experiment: Antifungal activity against Sclerotinia sclerotiorum assessed as inhibition of mycelial growth in contact phase at 786 umol/l measured at 20 degC after 5 days; assay type: functional; conditions: 120 h, read-out: GI
Sclerotinia sclerotiorum [6] = experiment: Antifungal activity against Sclerotinia sclerotiorum assessed as inhibition of mycelial growth in contact phase at 708 umol/l measured at 20 degC after 5 days; assay type: functional; conditions: 120 h, read-out: GI
Sclerotinia sclerotiorum [7] = experiment: Antifungal activity against Sclerotinia sclerotiorum assessed as inhibition of mycelial growth in contact phase at 550 umol/l measured at 20 degC after 5 days; assay type: functional; conditions: 120 h, read-out: GI
Sclerotinia sclerotiorum [8] = experiment: Fungistatic activity in Sclerotinia sclerotiorum assessed as inhibition of carpogenic germination in volatile phase at 786 umol/l measured at 20 degC after 5 days relative to control; assay type: functional; conditions: 120 h
Sclerotinia sclerotiorum [9] = experiment: Fungistatic activity in Sclerotinia sclerotiorum assessed as inhibition of carpogenic germination in volatile phase at 393 umol/l measured at 20 degC after 5 days relative to control; assay type: functional; conditions: 120 h
Sclerotinia sclerotiorum [10] = experiment: Fungistatic activity in Sclerotinia sclerotiorum assessed as inhibition of carpogenic germination in volatile phase at 79 umol/l measured at 20 degC after 5 days relative to control; assay type: functional; conditions: 120 h
Sclerotinia sclerotiorum [11] = experiment: Antifungal activity against Sclerotinia sclerotiorum assessed as inhibition of mycelial growth in volatile phase at 786 umol/l measured at 20 degC after 5 days; assay type: functional; conditions: 120 h, read-out: GI
Sclerotinia sclerotiorum [12] = experiment: Fungistatic activity in Sclerotinia sclerotiorum assessed as sclerotial viability measured at 20 degC after 5 days; assay type: functional, organism-based; conditions: 120 h
Sclerotinia sclerotiorum [13] = experiment: Fungistatic activity in Sclerotinia sclerotiorum assessed as inhibition of mycelial growth in volatile phase measured at 20 degC after 5 days; assay type: functional, organism-based; conditions: 120 h
Sclerotinia sclerotiorum [14] = experiment: Fungistatic activity in Sclerotinia sclerotiorum assessed as inhibition of mycelial growth in contact phase measured at 20 degC after 5 days; assay type: functional, organism-based; conditions: 120 h
Sclerotinia sclerotiorum [15] = experiment: Fungistatic activity in Sclerotinia sclerotiorum assessed as viability in volatile phase at 786 umol/l measured at 20 degC after 5 days relative to control; assay type: functional; conditions: 120 h, read-out: GI
Sclerotinia sclerotiorum [16] = experiment: Fungistatic activity in Sclerotinia sclerotiorum assessed as inhibition of mycelial growth in contact phase at 2358 umol/l measured at 20 degC after 5 days relative to control; assay type: functional; conditions: 120 h, read-out: GI
Sclerotinia sclerotiorum [17] = experiment: Antifungal activity against Sclerotinia sclerotiorum assessed as inhibition of mycelial growth in volatile phase at 550 umol/l measured at 20 degC after 5 days; assay type: functional; conditions: 120 h, read-out: GI
Sclerotinia sclerotiorum [18] = experiment: Antifungal activity against Sclerotinia sclerotiorum assessed as inhibition of mycelial growth in volatile phase at 393 umol/l measured at 20 degC after 5 days; assay type: functional; conditions: 120 h, read-out: GI
Sclerotinia sclerotiorum [19] = experiment: Antifungal activity against Sclerotinia sclerotiorum assessed as inhibition of mycelial growth in volatile phase at 79 umol/l measured at 20 degC after 5 days; assay type: functional; conditions: 120 h, read-out: GI
Sclerotinia sclerotiorum [20] = experiment: Antifungal activity against Sclerotinia sclerotiorum assessed as inhibition of mycelial growth in volatile phase at 39 umol/l measured at 20 degC after 5 days; assay type: functional; conditions: 120 h, read-out: GI
Sclerotinia sclerotiorum [21] = experiment: Antifungal activity against Sclerotinia sclerotiorum assessed as inhibition of germination in volatile phase at 786 umol/l measured at 20 degC after 5 days; assay type: functional; conditions: 120 h
Sclerotinia sclerotiorum [22] = experiment: Antifungal activity against Sclerotinia sclerotiorum assessed as inhibition of germination in volatile phase at 393 umol/l measured at 20 degC after 5 days; assay type: functional; conditions: 120 h
Sclerotinia sclerotiorum [23] = experiment: Antifungal activity against Sclerotinia sclerotiorum assessed as inhibition of germination in volatile phase at 236 umol/l measured at 20 degC after 5 days; assay type: functional; conditions: 120 h
Sclerotinia sclerotiorum [24] = experiment: Antifungal activity against Sclerotinia sclerotiorum assessed as inhibition of germination in volatile phase at 79 umol/l measured at 20 degC after 5 days; assay type: functional; conditions: 120 h
Sclerotinia sclerotiorum [25] = experiment: Antifungal activity against Sclerotinia sclerotiorum assessed as inhibition of germination in volatile phase at 39 umol/l measured at 20 degC after 5 days; assay type: functional; conditions: 120 h
Sclerotinia sclerotiorum [26] = experiment: Fungistatic activity in Sclerotinia sclerotiorum assessed as inhibition of mycelial growth in volatile phase at 550 umol/l measured at 20 degC after 5 days relative to control; assay type: functional; conditions: 120 h, read-out: GI

SMILES: CCN=C=S [ETHYL ISOTHIOCYANATE]
- inhibition in vivo at 158 µM (Sclerotinia sclerotiorum [1]): 70%
- inhibition in vivo at 79 µM (Sclerotinia sclerotiorum [2]): 38.3%
- inhibition of growth at 2358 µM (Sclerotinia sclerotiorum [3]): 100%
- inhibition of growth at 1572 µM (Sclerotinia sclerotiorum [4]): 81.5%
- inhibition of growth at 786 µM (Sclerotinia sclerotiorum [5]): 69.5%
- inhibition of growth at 708 µM (Sclerotinia sclerotiorum [6]): 56.2%
- inhibition of growth at 550 µM (Sclerotinia sclerotiorum [7]): 34.2%
- inhibition at 786 µM (Sclerotinia sclerotiorum [8]): 87.5%
- inhibition at 393 µM (Sclerotinia sclerotiorum [9]): 62.5%
- inhibition at 79 µM (Sclerotinia sclerotiorum [10]): 52.5%
- inhibition of growth at 786 µM (Sclerotinia sclerotiorum [11]): 100%
- EC50 (Sclerotinia sclerotiorum [12]): 212 µM
- EC50 (Sclerotinia sclerotiorum [13]): 157 µM
- EC50 (Sclerotinia sclerotiorum [14]): 653 µM
- inhibition of growth at 786 µM (Sclerotinia sclerotiorum [15]): 100%
- inhibition of growth at 2358 µM (Sclerotinia sclerotiorum [16]): 100%
- inhibition of growth at 550 µM (Sclerotinia sclerotiorum [17]): 100%
- inhibition of growth at 393 µM (Sclerotinia sclerotiorum [18]): 56%
- inhibition of growth at 79 µM (Sclerotinia sclerotiorum [19]): 30.8%
- inhibition of growth at 39 µM (Sclerotinia sclerotiorum [20]): 5%
- inhibition at 786 µM (Sclerotinia sclerotiorum [21]): 100%
- inhibition at 393 µM (Sclerotinia sclerotiorum [22]): 66.7%
- inhibition at 236 µM (Sclerotinia sclerotiorum [23]): 46.7%
- inhibition at 79 µM (Sclerotinia sclerotiorum [24]): 26.7%
- inhibition at 39 µM (Sclerotinia sclerotiorum [25]): 0%
- inhibition of growth at 550 µM (Sclerotinia sclerotiorum [26]): 100%
